Assay results reported in patent publication US20240409536A1, “COMPOUNDS AND METHODS FOR MODULATING SPLICING” (REMIX THERAPEUTICS INC., priority 2021, published 2024).

How the values were obtained:
HiBiT-tagged MYB protein = test: HiBiT protein abundance assay, MYB (K562 HiBiT knock-in cells); format: cell-based, human; conditions: 24 hours
Procedure, shortened: (§1)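 Luminescent readout of HiBiT-tagged endogenous protein after lysis, following 24 h compound exposure of knock-in K562 lines at 37 °C. Ten 3-fold concentrations from 10 μM final, DMSO ≤0.25%. Four-parameter logistic fit of normalized response gives concentration halving abundance (IC50).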

HiBiT-tagged HTT protein = test: HiBiT protein abundance assay, HTT (K562 HiBiT knock-in cells); format: cell-based, human; conditions: 24 hours
Procedure, shortened: as §1

HTT mRNA = test: Splicing RT-qPCR assay, HTT canonical (CJ) and alternative (AJ) junction mRNA; format: cell-based; conditions: Homo sapiens, A673 or K562 cells, 24 hours; for IC50: decrease in canonical junction mRNA; for AC50: increase in alternative junction mRNA
Procedure, shortened: (§2)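 RT-qPCR read-out: CJ and AJ junction isoforms quantified from cell lysates, normalized to housekeeping GAPDH/GUSB (K562) or PPIA (A673). Cells had 24 h compound exposure, 11-point 3-fold series from 10 uM final, ≤0.25% DMSO.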

MYB mRNA = test: Splicing RT-qPCR assay, MYB canonical (CJ) and alternative (AJ) junction mRNA; format: cell-based; conditions: Homo sapiens, A673 or K562 cells, 24 hours; for IC50: decrease in canonical junction mRNA; for AC50: increase in alternative junction mRNA
Procedure, shortened: as §2

Row | Structure (SMILES) | IC50 (HiBiT-tagged MYB protein) | IC50 (HiBiT-tagged HTT protein) | IC50 (HTT mRNA) | AC50 (HTT mRNA) | IC50 (MYB mRNA) | AC50 (MYB mRNA)
1 | COc1nc2ccc(NC(=O)c3ccc(N4C[C@@H](C)N[C@@H](C)C4)c4nccnc34)cc2o1 [Compound 292] | 1000 to 10000 nM | > 10000 nM | > 10 µM | > 10 µM | 1000 to 10000 nM | > 10000 nM
2 | Cc1cn2cc(NC(=O)c3ccc(N4C[C@@H](C)N[C@@H](C)C4)c4nccnc34)cc(C#N)c2n1 [Compound 294] | 100 to 1000 nM | > 10000 nM | 1 to 10 µM | > 10 µM | 100 to 1000 nM | 100 to 1000 nM
3 | CCOc1cnc2c(N3C[C@@H](C)N[C@@H](C)C3)ccc(C(=O)Nc3cc(F)c4nc(C)cn4c3)c2n1 [Compound 296] | < 100 nM | 100 to 1000 nM | 0.1 to 1 µM | 0.1 to 1 µM | < 100 nM | < 100 nM
4 | COc1nc(NC(=O)c2ccc(N3C[C@@H](C)N[C@@H](C)C3)c3nccnc23)cc2oc(C)nc12 [Compound 298] | 100 to 1000 nM | 1000 to 10000 nM | > 10 µM | > 10 µM | 100 to 1000 nM | 100 to 1000 nM
5 | COc1ncc2c(N3C[C@@H](C)N[C@@H](C)C3)ccc(C(=O)Nc3cc(F)c4nc(C)cn4c3)c2n1 [Compound 300] | < 100 nM | 100 to 1000 nM | 0.1 to 1 µM | 0.1 to 1 µM | < 100 nM | < 100 nM
6 | Cc1cn2cc(NC(=O)c3ccc(N4C[C@@H](C)N[C@@H](C)C4)c4cncnc34)cc(F)c2n1 [Compound 302] | 100 to 1000 nM | 1000 to 10000 nM | 1 to 10 µM | 1 to 10 µM | 100 to 1000 nM | 100 to 1000 nM
7 | Cc1cn2cc(NC(=O)c3ccc(N4C[C@@H](C)N[C@@H](C)C4)c4nccnc34)cc(Cl)c2n1 [Compound 304] | < 100 nM | > 10000 nM | 1 to 10 µM | > 10 µM | < 100 nM | < 100 nM
8 | C[C@@H]1CN(c2ccc(C(=O)Nc3cc(F)c4nc(Cl)cn4c3)c3nccnc23)C[C@H](C)N1 [Compound 306] | 100 to 1000 nM | 1000 to 10000 nM | > 10 µM | > 10 µM | 100 to 1000 nM | 100 to 1000 nM
9 | CNc1nc(NC(=O)c2ccc(N3C[C@@H](C)N[C@@H](C)C3)c3nccnc23)cn2cc(C)nc12 [Compound 308] | 1000 to 10000 nM | > 10000 nM | > 10 µM | > 10 µM | 1000 to 10000 nM | 1000 to 10000 nM
10 | Cc1c(O)c(NC(=O)c2ccc(N3C[C@@H](C)N[C@@H](C)C3)c3nccnc23)cc2cn(C)nc12 [Compound 310] | 1000 to 10000 nM | > 10000 nM | > 10 µM | > 10 µM | 100 to 1000 nM | 100 to 1000 nM
11 | Cc1cn2cc(NC(=O)c3ccc(N4C[C@@H](C)N[C@H](C)C4)c4nccnc34)cc(F)c2n1 [Compound 312] | < 100 nM | 1000 to 10000 nM | 1 to 10 µM | 1 to 10 µM | < 100 nM | < 100 nM
12 | Cc1cn2cc(NC(=O)c3ccc(N4C[C@H](C)N[C@@H](C)C4)c4nccnc34)cc(F)c2n1 [Compound 313] | < 100 nM | 100 to 1000 nM | 1 to 10 µM | 1 to 10 µM | < 100 nM | < 100 nM
13 | Cc1cn2cc(NC(=O)c3ccc(N4CC[C@@H](N)C4)c4nccnc34)cc(F)c2n1 [Compound 315] | 100 to 1000 nM | 1000 to 10000 nM | > 10 µM | 1 to 10 µM | 100 to 1000 nM | 1000 to 10000 nM
14 | Cc1cn2cc(NC(=O)c3ccc(NC4CCNC4)c4nccnc34)cc(F)c2n1 (stereo not drawn) [Compound 316] | 100 to 1000 nM | 1000 to 10000 nM | > 10 µM | 1 to 10 µM | 100 to 1000 nM | 1000 to 10000 nM
15 | C[C@@H]1CN(c2ccc(C(=O)Nc3cc(F)c4nn(C)cc4c3)c3nccnc23)C[C@@H](C)N1 [Compound 335] | 100 to 1000 nM | 1000 to 10000 nM | 1 to 10 µM | > 10 µM | 100 to 1000 nM | 100 to 1000 nM
16 | Cc1cn2cc(NC(=O)c3ccc(N4CCC5(CCN5)C4)c4nccnc34)cc(F)c2n1 (stereo not drawn) [Compound 339] | 100 to 1000 nM | 1000 to 10000 nM | 1 to 10 µM | 1 to 10 µM | 100 to 1000 nM | 1000 to 10000 nM
